Measurements from US20260200946A1, “KRAS(G12V) INHIBITORS” (Ranok Therapeutics (Hangzhou) Co. Ltd., priority 2022, published 2026).

Experiments:
KRAS(G12V)/SOS1 = molecular target: T1, KRAS(G12V)/SOS1 (Homo sapiens, UniProt P01116, G12V); assay: KRAS(G12V)/SOS1 homogeneous time-resolved fluorescence (HTRF) assay; format: binding; conditions: absence of GTP; 4° C., 3 hours; read-out: HTRF of KRASG12V-SOS1
T1 construct: purchased Cisbio 63ADK000CB18PEH
Procedure: Binding of test compounds to KRAS(G12V) target protein, which in turn blocks KRAS(G12V) interaction with the SOS1 protein, was measured in the absences of GTP by homogeneous time-resolved fluorescence using the KRAS-G12V/SOS1 Binding Assay Kit (Cisbio, 63ADK000CB18PEH), following the manufacturer's instructions, except as noted. 3-fold serial dilutions of each test compound were prepared ranging from 20 µM to 1.02 nM. The test compound was mixed and incubated with reaction components, incubated in a sealed plate at 4° C. for 3 hours and fluorescence was measured using a PerkinElmer Envision plate reader. The KRAS(G12V)-SOS1 IC50 values (the concentration of 50% of the maximal inhibition) were calculated using GraphPad Prism 8.0 software.

SW620 cells = assay: Cancer cell line proliferation (CellTiter-Glo), SW620; format: cell-based; conditions: Homo sapiens, SW-620, SW620 colorectal adenocarcinoma, homozygous G12V, 72 hr
Procedure: (§1) Cell lines were cultured essentially according to ATCC recommendations. SW620 and NCIH727 cells were plated in 384-well tissue culture plates at 1,000 cells/well and incubated at 37° C./5% CO2 for 72 hr in 40 μl of media. […] Each cell line was then treated with test compounds at various concentrations with a final concentration of 0.5% DMSO/well, and then incubated at 37° C./5% CO2 for 72 hr. 40 μl of CellTiter-Glo® Reagent (Promega Corporation, Madison, WI) was added to each well and processed according manufacturer's protocol. Results were analyzed and IC50 values were calculated in GraphPad 8.0 software.

NCIH727 cells = assay: Cancer cell line proliferation (CellTiter-Glo), NCI-H727; format: cell-based; conditions: Homo sapiens, 72 h, NCIH727 lung carcinoid, heterozygous G12V
Procedure: Cell lines were cultured essentially according to ATCC recommendations.
as §1, with “SW620” for “Cell lines were cultured essentially according to ATCC recommendations. SW620”

T1 sequence (P01116 1-188 isoform P01116-2 G12V): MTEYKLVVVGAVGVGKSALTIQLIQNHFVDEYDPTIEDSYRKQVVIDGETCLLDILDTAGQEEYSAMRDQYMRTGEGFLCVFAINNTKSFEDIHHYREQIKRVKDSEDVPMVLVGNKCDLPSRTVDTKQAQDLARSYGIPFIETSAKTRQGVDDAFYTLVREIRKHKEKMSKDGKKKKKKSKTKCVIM

| Structure (SMILES) | IC50 (KRAS(G12V)/SOS1) [nM] | EC50 (SW620 cells) [nM] | EC50 (NCIH727 cells) [nM] |
| --- | --- | --- | --- |
| C#Cc1c(F)ccc2cc(O)cc(-c3ncc4c(N5CC6CCC(C5)N6)nc(OCC5(CN6CCC(F)CC6)CC5)nc4c3F)c12 [Example 1, 4-(4-(3,8-diazabicyclo[3.2.1]octan-3-yl)-8-fluoro-2-((1-((4-fluoropiperidin-1-yl)methyl)cyclopropyl)methoxy)pyrido[4,3-d]pyrimidin-7-yl)-5-ethynyl-6-fluoronaphthalen-2-ol] | 100 to 1000 | – | – |
| C#Cc1c(F)ccc2cc(O)cc(-c3ncc4c(N5CC6CCC(C5)N6C(=O)CC#N)nc(OCC5(CN6CCC(F)CC6)CC5)nc4c3F)c12 [Example 2] | < 100 | 100 to 1000 | 100 to 1000 |
| C#Cc1c(F)ccc2cc(O)cc(-c3ncc4c(N5CC6CCC(C5)N6C(=O)CC(C)C)nc(OCC5(CN6CCC(F)CC6)CC5)nc4c3F)c12 [Example 4] | 100 to 1000 | – | > 1000 |
| C#Cc1c(F)ccc2cc(O)cc(-c3ncc4c(N5CC6CCC(C5)N6C(=O)NC5CCOC5)nc(OCC5(CN6CCC(F)CC6)CC5)nc4c3F)c12 (centres unmarked) [Example 9] | < 100 | – | > 1000 |
| C#Cc1c(F)ccc2cc(O)cc(-c3ncc4c(N5CC6CCC(C5)N6C(=O)Nc5ccn[nH]5)nc(OCC5(CN6CCC(F)CC6)CC5)nc4c3F)c12 [Example 10] | < 100 | – | > 1000 |
| C#Cc1c(F)ccc2cc(O)cc(-c3ncc4c(N5CC6CCC(C5)N6C(=O)C(O)O)nc(OCC5(CN6CCC(F)CC6)CC5)nc4c3F)c12 [Example 15] | 100 to 1000 | – | > 1000 |
| C#Cc1c(F)ccc2cc(O)cc(-c3nc(OC)c4c(N5CC6CCC(C5)N6C(=O)CC(F)(F)F)nc(OCC5(CN6CCC(F)CC6)CC5)nc4c3F)c12 [Example 20] | < 100 | – | – |
| C#Cc1c(F)ccc2cc(O)cc(-c3ncc4c(N5CC6CCC(C5)N6C(=O)NCC(C)(C)O)nc(OCC5(CN6CCC(F)CC6)CC5)nc4c3F)c12 [Example 53] | < 100 | – | – |
| C#CCC(=O)N1C2CCC1CN(c1nc(OCC3(CN4CCC(F)CC4)CC3)nc3c(F)c(-c4cc(O)cc5ccc(F)c(C#C)c45)ncc13)C2 [Example 54] | < 100 | – | – |
| C#Cc1c(F)ccc2cc(O)cc(-c3nc(OC)c4c(N5CC6CCC(C5)N6C(=O)NC5CCCC5)nc(OCC5(CN6CCC(F)CC6)CC5)nc4c3F)c12 [Example 55] | < 100 | – | – |
| C#Cc1c(F)ccc2cc(O)cc(-c3ncc4c(N5CC6CCC(C5)N6S(=O)(=O)NCCN(C)C)nc(OCC5(CN6CCC(F)CC6)CC5)nc4c3F)c12 [Example 56] | < 100 | – | – |
| C#CCCC(=O)N1C2CCC1CN(c1nc(OCC3(CN4CCC(F)CC4)CC3)nc3c(F)c(-c4cc(O)cc5ccc(F)c(C#C)c45)nc(OC)c13)C2 [Example 61] | < 100 | – | 100 to 1000 |
| C#Cc1c(F)ccc2cc(O)cc(-c3nc(OC)c4c(N5CC6CCC(C5)N6C(=O)NCCF)nc(OCC5(CN6CCC(F)CC6)CC5)nc4c3F)c12 [Example 62] | < 100 | – | 100 to 1000 |
| C#Cc1c(F)ccc2cc(O)cc(-c3nc(OC)c4c(N5CC6CCC(C5)N6C(=O)NC(C)(C#N)CC)nc(OCC5(CN6CCC(F)CC6)CC5)nc4c3F)c12 (centres unmarked) [Example 64] | < 100 | – | < 100 |
| C#Cc1c(F)ccc2cc(O)cc(-c3nc(OC)c4c(N5CC6CCC(C5)N6C(=O)NC(C)(C)C#N)nc(OCC5(CN6CCC(F)CC6)CC5)nc4c3F)c12 [Example 65] | < 100 | – | < 100 |
| C#Cc1c(F)ccc2cc(O)cc(-c3nc(OC)c4c(N5CC6CCC(C5)N6C(=O)CCC#N)nc(OCC5(CN6CC7CC7C6)CC5)nc4c3F)c12 (centres unmarked) [Example 99] | – | 100 to 1000 | < 100 |
| C#Cc1c(F)ccc2cc(O)cc(-c3nc(OC)c4c(N5CC6CCC(C5)N6C(=O)NCC#N)nc(OCC5(CN6CC7CC7C6)CC5)nc4c3F)c12 (centres unmarked) [Example 104] | – | 100 to 1000 | 100 to 1000 |
| C#Cc1c(F)ccc2cc(O)cc(-c3nc(OC)c4c(N5CC6CCC(C5)N6C(=O)NC(C)C#N)nc(OCC5(CN6CC7CC7C6)CC5)nc4c3F)c12 (centres unmarked) [Example 105] | – | 100 to 1000 | < 100 |
| C#Cc1c(F)ccc2cc(O)cc(-c3nc(OC)c4c(N5CC6CCC(C5)N6C(=O)C(C#N)CC#N)nc(OCC5(CN6CC7CC7C6)CC5)nc4c3F)c12 (centres unmarked) [Example 109] | – | 100 to 1000 | 100 to 1000 |
| [2H]C([2H])([2H])Oc1nc(-c2cc(O)cc3ccc(F)c(C#C)c23)c(F)c2nc(OCC3(CN4CC5CC5C4)CC3)nc(N3CC4CCC(C3)N4C(=O)C(C)C#N)c12 (centres unmarked) [Example 118] | < 100 | – | 100 to 1000 |

| Structure (SMILES) | IC50 (KRAS(G12V)/SOS1) [nM] | EC50 (SW620 cells) [nM] | EC50 (NCIH727 cells) [nM] |
| --- | --- | --- | --- |
| [2H]C([2H])([2H])Oc1nc(-c2cc(O)cc3ccc(F)c(C#C)c23)c(F)c2nc(OCC3(CN4CC5CC5C4)CC3)nc(N3CC4CCC(C3)N4C(=O)C(C)(C)C#N)c12 (centres unmarked) [Example 119] | < 100 | – | > 1000 |
| C#Cc1c(F)ccc2cc(O)cc(-c3nc(OC)c4c(N5CC6CCC(C5)N6C(=O)NCC(F)(F)F)nc(OCC5(CN6CC7CC7C6)CC5)nc4c3F)c12 (centres unmarked) [Example 129] | – | 100 to 1000 | < 100 |
| C#Cc1c(F)ccc2cc(O)cc(-c3nc(OC)c4c(N5CC6CCC(C5)N6C(=O)CC(C)C#N)nc(OCC5(CN6CC7CC7C6)CC5)nc4c3F)c12 (centres unmarked) [Example 140] | – | 100 to 1000 | < 100 |
| C#Cc1c(F)ccc2cc(O)cc(-c3nc(OC)c4c(N5CC6CCC(C5)N6C(=O)CCOC(F)(F)F)nc(OCC5(CN6CC7CC7C6)CC5)nc4c3F)c12 (centres unmarked) [Example 147] | – | 100 to 1000 | 100 to 1000 |
| C#Cc1c(F)ccc2cc(O)cc(-c3nc(OC)c4c(N5CC6CCC(C5)N6C(=O)C(C#N)CC5CC5)nc(OCC5(CN6CC7CC7C6)CC5)nc4c3F)c12 (centres unmarked) [Example 186] | – | – | > 1000 |
| C#Cc1c(F)ccc2cc(O)cc(-c3nc(OC)c4c(N5CC6CCC(C5)N6C(=O)NCC(O)C(F)(F)F)nc(OCC5(CN6CC7CC7C6)CC5)nc4c3F)c12 (centres unmarked) [Example 187] | – | – | 100 to 1000 |
| C#Cc1c(F)ccc2cc(O)cc(-c3nc(OC)c4c(N5CC6CCC(C5)N6C(=O)N[C@H](C)C(F)(F)F)nc(OCC5(CN6CC7CC7C6)CC5)nc4c3F)c12 (some centres unmarked) [Example 188] | – | – | 100 to 1000 |
| C#Cc1c(F)ccc2cc(O)cc(-c3nc(OC)c4c(N5CC6CCC(C5)N6C(=O)NC(C#N)C(N)=O)nc(OCC5(CN6CC7CC7C6)CC5)nc4c3F)c12 (centres unmarked) [Example 189] | – | – | > 1000 |
| C#Cc1c(F)ccc2cc(O)cc(-c3nc(OC)c4c(N5CC6CCC(C5)N6C(=O)N[C@H]5C[C@@H](C#N)C5)nc(OCC5(CN6CC7CC7C6)CC5)nc4c3F)c12 (some centres unmarked) [Example 190] | – | – | 100 to 1000 |
| C#Cc1c(F)ccc2cc(O)cc(-c3nc(OC)c4c(N5CC6CCC(C5)N6C(=O)N[C@H]5C[C@H](C#N)C5)nc(OCC5(CN6CC7CC7C6)CC5)nc4c3F)c12 (some centres unmarked) [Example 191] | – | – | 100 to 1000 |
| C#Cc1c(F)ccc2cc(O)cc(-c3nc(OC)c4c(N5CC6CCC(C5)N6C(=O)NC(C#N)C5CC5)nc(OCC5(CN6CC7CC7C6)CC5)nc4c3F)c12 (centres unmarked) [Example 192] | – | – | 100 to 1000 |
| C#Cc1c(F)ccc2cc(O)cc(-c3nc(OC)c4c(N5CC6CCC(C5)N6C(=O)CC(C)(O)C(F)(F)F)nc(OCC5(CN6CC7CC7C6)CC5)nc4c3F)c12 (centres unmarked) [Example 193] | – | – | 100 to 1000 |
| C#Cc1c(F)ccc2cc(O)cc(-c3nc(OC)c4c(N5CC6CCC(C5)N6C(=O)NC56CC(C#N)(C5)C6)nc(OCC5(CN6CC7CC7C6)CC5)nc4c3F)c12 (centres unmarked) [Example 194] | – | – | 100 to 1000 |
| C#Cc1c(F)ccc2cc(O)cc(-c3nc(OC)c4c(N5CC6CCC(C5)N6C(=O)N[C@@H]5CCC[C@@H]5C#N)nc(OCC5(CN6CC7CC7C6)CC5)nc4c3F)c12 (some centres unmarked) [Example 195] | – | – | 100 to 1000 |
| C#Cc1c(F)ccc2cc(O)cc(-c3nc(OC)c4c(N5CC6CCC(C5)N6C(=O)NC5(C#N)COC5)nc(OCC5(CN6CC7CC7C6)CC5)nc4c3F)c12 (centres unmarked) [Example 196] | – | – | 100 to 1000 |
| C#Cc1c(F)ccc2cc(O)cc(-c3nc(OC)c4c(N5CC6CCC(C5)N6C(=O)NC5(C#N)CCC5)nc(OCC5(CN6CC7CC7C6)CC5)nc4c3F)c12 (centres unmarked) [Example 197] | – | – | < 100 |
| C#Cc1c(F)ccc2cc(O)cc(-c3nc(OC)c4c(N5CC6CCC(C5)N6C(=O)NC56CC(C5)C6)nc(OCC5(CN6CC7CC7C6)CC5)nc4c3F)c12 (centres unmarked) [Example 198] | – | – | < 100 |
| C#Cc1c(F)ccc2cc(O)cc(-c3nc(OC)c4c(N5CC6CCC(C5)N6C(=O)NC5COC5)nc(OCC5(CN6CC7CC7C6)CC5)nc4c3F)c12 (centres unmarked) [Example 199] | – | – | < 100 |
| C#Cc1c(F)ccc2cc(O)cc(-c3nc(OC)c4c(N5CC6CCC(C5)N6C(=O)N5CC(F)C5)nc(OCC5(CN6CC7CC7C6)CC5)nc4c3F)c12 (centres unmarked) [Example 200] | – | – | < 100 |
| C#Cc1c(F)ccc2cc(O)cc(-c3nc(OC)c4c(N5CC6CCC(C5)N6C(=O)N5CC(C(F)F)C5)nc(OCC5(CN6CC7CC7C6)CC5)nc4c3F)c12 (centres unmarked) [Example 201] | – | – | 100 to 1000 |
